Source: patent publication US9518000B2, “Bicyclo [2.2.1] acid GPR120 modulators” (BRISTOL-MYERS SQUIBB COMPANY, priority 2013, dated 2016)

biological target: human GPR120 (Homo sapiens (Human), UniProt Q5NUL3); test: GPR120 pERK AlphaScreen SureFire Assay (human GPR120 pERK assay); format: cell-based; conditions: CHOA12 or CHO-K1 cells stably transfected with the short form of human GPR120 receptor; phosphorylated ERK; read-out: EC50 values measured in the human GPR120 pERK assay
Excerpt: GPR120 activity was monitored by measuring phosphorylation of ERK (pERK), since G protein receptors are known to activate the ERK signaling cascade either directly and/or through recruitment of arrestin that serves as a scaffold for downstream signaling events.
GPR120 pERK AlphaScreen SureFire Assay
The human and mouse GPR120-mediated intracellular phosphorylated ERK assays were established using CHOA12 cells stably transfected with the short form of human or mouse GPR120 receptor. Cells were cultured in growth medium consisting of F-12 media (Invitrogen Cat. #11765) with 5% Charcoal/Dextran FBS (Invitrogen Cat. #12676-029), 500 μg/mL GENETICIN® (Life Technologies Cat. #10131-027) and 250 μg/mL Zeocin (Invitrogen Cat. #R250-01). Cells were cryo preserved at a concentration of 2×10^7 cells/mL, in 90% Charcoal/Dextran FBS and 10% DMSO, and frozen in liquid nitrogen at a low passage number.
For the pERK assay, 2×10^7 cells/mL cryopreserved human and mouse cells were thawed rapidly in a 37° C. water bath and added to a T-225 flask containing 50 mL growth medium. The flasks were placed in a tissue culture incubator overnight (37° C., 5% CO2). The next day, cells were harvested with trypsin (Gibco Cat. #25300-054), resuspended in serum-containing growth medium and counted using a Cellometer and volume adjusted to a concentration of 0.6×10^6 cells/mL. Cells were plated into 384-well clear bottom tissue culture plates (BD Cat. #353962) at 50 μL/well, for a density of 30,000 cells/well using a MULTIDROP® and incubated for 16-18 hours (overnight) at 37° C. with 5% CO2. The next day, cells were serum starved in 30 μL of F-12 media without any serum or antibiotics for 2 hours at 37° C.
Test compounds were 3-fold, 11-point serially diluted in DMSO in a REMP assay plate (Matrix Cat. #4307) by Tecan and 5 μL was transferred into an ECHO source plate (LabCyte Cat. #LC-0200). Cells were then stimulated with 50 nL of compound dilutions using ECHO liquid handler for 7 minutes at 37° C. Compounds ranged from final assay concentrations of 33.33 μM to 0.56 nM.
The media was then dumped and cells lysed with 20 μL of 1× Lysis buffer from the AlphaScreen SureFire Phospho-ERK 1/2 Kit (Perkin Elmer Cat. #6760617M). The lysis buffer was diluted 5-fold with water before use. The plate was agitated on a shaker for 10 minutes after which 2 μL was transferred into a 384-well white proxiplate (Perkin Elmer Cat. #6008289). The SureFire assay reagent mix was prepared by mixing 60 parts Reaction Buffer, 10 parts Activation Buffer, 1 part Donor Beads, 1 part Acceptor Beads (Perkin Elmer Cat. #TGRES10K). 3.5 μL/well of this reagent mix was manually added to the proxiplate with a multichannel pipettor. Plates were spun down at 1000 rpm for 2 minutes, followed by light-protected incubation at room temperature for 2 hours. The plates were read on the Alpha-technology compatible Envision multilabel plate reader using AlphaScreen protocol according to manufacturer's specifications. The agonist effect of compounds was expressed as 100×(average sample-average blank)/(average total−average blank) where sample is the luminescence activity in the presence of test compound, blank is equal to the luminescence activity in the presence of DMSO control and the total is signal induced by 50 μM linolenic acid as reference compound. Activation data for the test compound over a range of concentrations was plotted as percentage activation of the test compound (100%=maximum response). After correcting for background, EC50 values were determined. The EC50 is defined as the concentration of test compound which produces 50% of the maximal response and was quantified using the 4 parameter logistic equation to fit the data.
The human and mouse GPR120-mediated intracellular phosphorylated ERK assays were also established using CHO-K1 cells stably transfected with the short form of human or mouse GPR120 receptor. […]

Chain of human GPR120 (Q5NUL3 whole entry): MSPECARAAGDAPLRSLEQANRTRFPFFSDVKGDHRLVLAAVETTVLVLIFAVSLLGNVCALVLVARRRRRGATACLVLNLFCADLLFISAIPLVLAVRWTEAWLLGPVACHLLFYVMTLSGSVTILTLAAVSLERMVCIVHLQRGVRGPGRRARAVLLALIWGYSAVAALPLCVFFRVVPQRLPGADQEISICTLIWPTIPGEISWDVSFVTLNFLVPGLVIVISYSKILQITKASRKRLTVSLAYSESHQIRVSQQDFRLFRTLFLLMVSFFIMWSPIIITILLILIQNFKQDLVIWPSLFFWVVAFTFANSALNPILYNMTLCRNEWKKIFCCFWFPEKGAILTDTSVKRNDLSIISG

How did the EC50 turn out when `O=C(O)CCCC12CCC(OCc3cccc(Cl)c3F)(CC1)C2` [Example 45, 4-(4-(3-chloro-2-fluorobenzyl-oxy)bicyclo [2.2.1]heptan-1-yl)butanoic acid] was run?
Its EC50 is 710 nM.

How did the EC50 turn out when `Cc1cc(COC23CCC(CCCC(=O)O)(CC2)C3)n(-c2ccc(Cl)cc2)n1` [Example 1, 4-(4-((1-(4-Chlorophenyl)-3-methyl-1H-pyrazol-5-yl)methoxy)bicyclo[2.2.1]heptan-1-yl) butanoic acid] was run?
Its EC50 is 1560 nM.

Which EC50 does the source give for `O=C(O)COCC12CCC(OCc3cccc(Oc4ccccc4)c3)(CC1)C2` [Example 74, 2-((4-(3-phenoxybenzyloxy)bicyclo[2.2.1]heptan-1-yl)methoxy)acetic acid] here?
The EC50 was 1430 nM.

With `O=C(O)[C@@H]1C[C@H]1CC12CCC(OCc3cc(F)cc(Oc4ccccc4)c3)(CC1)C2` (single isomer, unassigned) [Example 93] as the compound, how does the EC50 read?
The EC50 was 880 nM.

Which EC50 does the source give for `COc1cc(COC23CCC(CCCC(=O)O)(CC2)C3)cc(OC)c1` [Example 21, 4-(4-(3,5-dimethoxybenzyl-oxy)bicyclo [2.2.1]heptan-1-yl)butanoic acid] here?
The EC50 was 1920 nM.

Which EC50 does the source give for `O=C(O)CCCC12CCC(OCc3cccc(SC(F)(F)F)c3)(CC1)C2` [Example 50, 4-(4-(3-(trifluoro-methylthio)benzyloxy)bicyclo[2.2.1]heptan-1-yl) butanoic acid] here?
Its EC50 is 540 nM.

With `COc1cc(F)cc(COC23CCC(CCCC(=O)O)(CC2)C3)c1` [Example 27, 4-(4-(3-fluoro-5-methoxybenzyl-oxy)bicyclo [2.2.1]heptan-1-yl)butanoic acid] as the compound, how does the EC50 read?
The EC50 was 1560 nM.

With `O=C(O)CCCC12CCC(OCc3ccc(Oc4ccccc4)cc3)(CC1)C2` [Example 58, 4-(4-(4-phenoxy-benzyloxy)bicyclo[2.2.1]heptan-1-yl) butanoic acid] as the compound, how does the EC50 read?
Its EC50 is 1720 nM.

How did the EC50 turn out when `NC(=O)CNC(=O)CCCC12CCC(OCc3cc(F)cc(Oc4ccccc4)c3)(CC1)C2` [Example 98, N-(2-Amino-2-oxoethyl)-4-(4-((3-fluoro-5-phenoxybenzyl)oxy)bicyclo[2.2.1]heptan-1-yl)butanamide] was run?
The EC50 was 2680 nM.

With `O=C(O)CCCC12CCC(OCc3c(F)ccc(F)c3Cl)(CC1)C2` [Example 56, 4-(4-(2-chloro-3,6-difluorobenzyl-oxy)bicyclo [2.2.1]heptan-1-yl)butanoic acid] as the compound, how does the EC50 read?
The EC50 was 1880 nM.

Which EC50 does the source give for “4-(4-(2-(trifluoro- methoxy) benzoyloxy) bicyclo[2.2.1] heptan-1-yl) butanoic acid [Example 20]” here?
Its EC50 is 710 nM.

`CS(=O)(=O)NC(=O)CCCC12CCC(OCc3cc(F)ccc3Oc3ccccc3)(CC1)C2` [Example 83, 4-(4-(5-Fluoro-2-phenoxybenzyloxy)bicyclo[2.2.1]heptan-1-yl)-N-(methylsulfonyl) butanamide] was tested. Which EC50 did it give?
Its EC50 is 400 nM.

`O=C(O)CCCC12CCC(OCc3ccc(Cl)cc3Cl)(CC1)C2` [Example 41, 4-(4-(2,4-dichlorobenzyloxy)bicyclo[2.2.1]heptan-1-yl) butanoic acid] was tested. Which EC50 did it give?
Its EC50 is 1100 nM.

With `COc1ccc(COC23CCC(CCCC(=O)O)(CC2)C3)c(F)c1` [Example 42, 4-(4-(2-fluoro-4-methoxybenzyl-oxy)bicyclo[2.2.1]heptan-1-yl) butanoic acid] as the compound, how does the EC50 read?
The EC50 was 9100 nM.

For `O=C(O)COCCC12CCC(OCc3cc(F)cc(Oc4ccccc4)c3)(CC1)C2` [Example 100, 2-(2-(4-((3-Fluoro-5-phenoxybenzyl)oxy)bicyclo[2.2.1]heptan-1-yl)ethoxy)acetic acid], which EC50 is on record?
Its EC50 is 570 nM.

How did the EC50 turn out when `COc1ccc(Br)cc1COC12CCC(CCCC(=O)O)(CC1)C2` [Example 60, 4-(4-(5-bromo-2-methoxybenzyl-oxy)bicyclo [2.2.1]heptan-1-yl)butanoic acid] was run?
Its EC50 is 4150 nM.

With “4-(4-(3-chloro-5- phenoxybenzyl- oxy)bicyclo [2.2.1]heptan- 1-yl)benzoic acid [Example 6]” as the compound, how does the EC50 read?
The EC50 was 450 nM.

For `O=C(O)CCCC12CCC(OCc3cc(F)ccc3OC(F)(F)F)(CC1)C2` [Example 44, 4-(4-(5-fluoro-2-(trifluorometh-oxy)benzyloxy)bicyclo[2.2.1]heptan-1-yl) butanoic acid], which EC50 is on record?
The EC50 was 930 nM.

`CC(OC12CCC(COCC(=O)O)(CC1)C2)c1cc(F)cc(Oc2ccc(F)cc2)c1` (stereo not drawn) [Example 76, 2-((4-(1-(3-fluoro-5-(4-fluorophenoxy)phenyl)ethoxy)bicyclo[2.2.1]heptan-1-yl)methoxy)acetic acid] was tested. Which EC50 did it give?
The EC50 was 3040 nM.

`CC1(C)Cc2cc(Cl)cc(COC34CCC(CCCO)(CC3)C4)c2O1` [Example 70, 3-(4-((5-Chloro-2,2-dimethyl-2,3-dihydrobenzofuran-7-yl)methoxy)bicyclo[2.2.1]heptan-1-yl)propan-1-ol] was tested. Which EC50 did it give?
Its EC50 is 7250 nM.

How did the EC50 turn out when `O=C(O)CCC12CCC(OCCc3cccc(Oc4ccccc4)c3)(CC1)C2` [Example 88, 3-(4-(3-phenoxyphenethoxy)bicyclo[2.2.1]heptan-1-yl)propanoic acid] was run?
Its EC50 is 2640 nM.

With `O=C(O)COCC12CCC(OCc3cc(Cl)cc(OC(F)(F)F)c3)(CC1)C2` [Example 78, 2-((4-((3-chloro-5-(trifluoromethoxy)benzyl)oxy)bicyclo[2.2.1]heptan-1-yl)methoxy)acetic acid] as the compound, how does the EC50 read?
The EC50 was 940 nM.

With `O=C(O)CCCC12CCC(OCc3cc([N+](=O)[O-])ccc3Cl)(CC1)C2` [Example 51, 4-(4-(2-chloro-5-nitrobenzyloxy)bicyclo[2.2.1]heptan-1-yl) butanoic acid] as the compound, how does the EC50 read?
The EC50 was 2390 nM.

How did the EC50 turn out when `O=C(O)CCCC12CCC(OCc3cc(Cl)cc(Cl)c3)(CC1)C2` [Example 4, 4-(4-(3,5-dichloro-benzyloxy)bicyclo[2.2.1]heptan-1-yl) butanoic acid] was run?
The EC50 was 650 nM.

How did the EC50 turn out when `CC(OC12CCC(CCCC(=O)O)(CC1)C2)c1cccc(C(F)(F)F)c1` (stereo not drawn) [Example 8, 4-(4-(1-(3-(trifluoromethyl)phenyl)ethoxy)bicyclo[2.2.1]heptan-1-yl) butanoic acid] was run?
The EC50 was 2340 nM.

With `O=C(O)CCC12CCC(OCCc3cccc4ccccc34)(CC1)C2` [Example 87, 3-(4-(2-(naphthalen-1-yl)ethoxy)bicyclo [2.2.1]heptan-1-yl) propanoic acid] as the compound, how does the EC50 read?
The EC50 was 1310 nM.

With `O=C(O)CCCC12CCC(OCc3ccc(Cl)cc3)(CC1)C2` [Example 24, 4-(4-(4-chloro-benzyloxy)bicyclo[2.2.1]heptan-1-yl) butanoic acid] as the compound, how does the EC50 read?
Its EC50 is 2800 nM.

How did the EC50 turn out when `O=C(O)CCCC12CCC(OCc3cccc(Cl)c3)(CC1)C2` [Example 23, 4-(4-(3-chloro-benzyloxy)bicyclo[2.2.1]heptan-1-yl) butanoic aicd] was run?
Its EC50 is 1150 nM.

For `O=C(O)CCCC12CCC(OCc3cccc(F)c3F)(CC1)C2` [Example 53, 4-(4-(2,3-difluorobenzyloxy)bicyclo[2.2.1]heptan-1-yl) butanoic acid], which EC50 is on record?
The EC50 was 6120 nM.

How did the EC50 turn out when `O=C(O)/C=C/CC12CCC(OCc3cccc(Oc4ccccc4)c3)(CC1)C2` [Example 94, (E)-4-(4-((3-Phenoxybenzyl)oxy)bicyclo[2.2.1]heptan-1-yl)but-2-enoic acid] was run?
The EC50 was 630 nM.

How did the EC50 turn out when `OCCC12CCC(OCc3cc(F)cc(Oc4ccccc4)c3)(CC1)C2` [Example 99, 2-(4-((3-Fluoro-5-phenoxybenzyl)oxy)bicyclo[2.2.1]heptan-1-yl)ethanol] was run?
The EC50 was 6360 nM.

For `O=C(O)CCC12CCC(OCc3cc(F)cc(Oc4ccccc4)c3)(CC1)C2` [Example 90, 3-(4-((3-fluoro-5-phenoxybenzyl)oxy)bicyclo [2.2.1]heptan-1-yl) propanoic acid], which EC50 is on record?
The EC50 was 1220 nM.

`O=C(O)CCCC12CCC(OCc3cccc(-c4ccccc4)c3)(CC1)C2` [Example 57, 4-(4-(biphenyl-3-ylmethoxy)bicyclo[2.2.1]heptan-1-yl) butanoic acid] was tested. Which EC50 did it give?
Its EC50 is 770 nM.
